The target of this experiment is T1, AHR (UniProt P35869).
T1 construct: IC50
T1 sequence (P35869 1-848): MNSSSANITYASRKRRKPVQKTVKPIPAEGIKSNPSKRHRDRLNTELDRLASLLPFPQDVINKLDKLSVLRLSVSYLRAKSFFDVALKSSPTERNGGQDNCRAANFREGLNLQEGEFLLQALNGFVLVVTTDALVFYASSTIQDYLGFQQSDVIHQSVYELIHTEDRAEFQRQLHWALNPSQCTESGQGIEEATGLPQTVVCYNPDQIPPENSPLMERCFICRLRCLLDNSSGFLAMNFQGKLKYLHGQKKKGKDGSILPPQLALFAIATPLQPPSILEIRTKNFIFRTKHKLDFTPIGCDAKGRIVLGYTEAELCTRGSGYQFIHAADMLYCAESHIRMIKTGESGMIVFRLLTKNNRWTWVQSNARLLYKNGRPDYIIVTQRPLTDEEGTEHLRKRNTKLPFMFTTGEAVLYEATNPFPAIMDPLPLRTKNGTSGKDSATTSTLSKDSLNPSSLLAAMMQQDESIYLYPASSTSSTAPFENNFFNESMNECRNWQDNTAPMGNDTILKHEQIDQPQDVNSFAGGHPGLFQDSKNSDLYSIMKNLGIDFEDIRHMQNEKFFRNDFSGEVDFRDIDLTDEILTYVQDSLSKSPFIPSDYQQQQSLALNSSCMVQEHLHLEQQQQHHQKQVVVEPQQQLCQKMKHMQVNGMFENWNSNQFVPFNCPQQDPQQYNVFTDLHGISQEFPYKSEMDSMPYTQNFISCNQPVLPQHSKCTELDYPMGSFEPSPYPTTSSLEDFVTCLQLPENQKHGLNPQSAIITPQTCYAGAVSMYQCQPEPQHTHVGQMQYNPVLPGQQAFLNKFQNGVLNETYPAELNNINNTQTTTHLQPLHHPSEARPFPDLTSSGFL
Description: DRE-Luciferase Reporter Assay (Alternate Method) (Example 1B). In kind it is cell-based, murine or human. The following applies: cell line and AHR activating ligand not specified.
As to `CC(C)c1cnn2c(N[C@@H]3CCc4[nH]c5c(F)cc(F)cc5c4C3)nc(-c3cncc(F)c3)nc12` [I-139b, (3R)-6,8-difluoro-N-[2-(5-fluoro-3-pyridyl)-8-isopropyl-pyrazolo[1,5-a][1,3,5]triazin-4-yl]-2,3,4,9-tetrahydro-1H-carbazol-3-amine], the IC50 – broadly, the point on the concentration scale where inhibition reaches its midpoint – is under 500 nM.
Next, `Fc1cncc(-c2nc(NCCc3c[nH]c4ccccc34)n3ncc(Br)c3n2)c1` [I-141, 8-bromo-2-(5-fluoro-3-pyridyl)-N-[2-(1H-indol-3-yl)ethyl]pyrazolo[1,5-a][1,3,5]triazin-4-amine]: under 500 nM; `O=C(O)c1cnn2c(NCCc3c[nH]c4c(O)cccc34)cc(-c3cncc(F)c3)nc12` [I-142]: over 1500 nM.
Next, `OCc1cnn2c(NCCc3c[nH]c4ccc(O)cc34)cc(-c3cncc(F)c3)nc12` [I-143, 3-[2-[[5-(5-fluoro-3-pyridyl)-3-(hydroxymethyl)pyrazolo[1,5-a]pyrimidin-7-yl]amino]ethyl]-1H-indol-5-ol]: over 1500 nM.
As to `OCc1cnn2c(NC[C@@H](O)c3c[nH]c4ccccc34)cc(-c3cncc(F)c3)nc12` [I-144a, (1S)-2-[[5-(5-fluoro-3-pyridyl)-3-(hydroxymethyl)pyrazolo[1,5-a]pyrimidin-7-yl]amino]-1-(1H-indol-3-yl)ethanol], the IC50 lay in the range of 1000 to 1500 nM.
Next, `CC(C)c1cnn2c(N[C@H]3CCc4c([nH]c5ccccc45)C3)nc(-c3cncc(F)c3)nc12` [I-146a]: over 1500 nM.
Next, `CC(C)c1cnn2c(N[C@@H]3CCc4c([nH]c5ccccc45)C3)nc(-c3cncc(F)c3)nc12` [I-146b]: over 1500 nM.
`Fc1cncc(-c2nccc(NCCc3c[nH]c4ccccc34)n2)c1` [I-148] yielded a 50% inhibitory concentration (IC50) of over 1500 nM.
Next, `Cc1cnn2c(NCCc3c[nH]c4c(O)cc(O)cc34)cc(-c3cncc(F)c3)nc12` [I-149]: over 1500 nM; `Cc1cnn2c(NC[C@H](O)c3c[nH]c4ccccc34)cc(-c3cncc(F)c3)nc12` [I-150a, (1R)-2-[[5-(5-Fluoro-3-pyridyl)-3-methyl-pyrazolo[1,5-a]pyrimidin-7-yl]amino]-1-(1H-indol-3-yl)ethanol]: under 500 nM.
Next, `Cc1cnn2c(NC[C@@H](O)c3c[nH]c4ccccc34)cc(-c3cncc(F)c3)nc12` [I-150b, (1S)-2-[[5-(5-Fluoro-3-pyridyl)-3-methyl-pyrazolo[1,5-a]pyrimidin-7-yl]amino]-1-(1H-indol-3-yl)ethanol]: 1000 to 1500 nM; `CC(C)Oc1cc(-c2ccccc2)nc(NCCc2c[nH]c3ccccc23)n1` [I-155, N-(2-(1H-Indol-3-yl)ethyl)-4-isopropoxy-6-phenylpyrimidin-2-amine]: 500 to 1000 nM.
Next, `Cc1c(-c2cncc(F)c2)nc2c(C)cnn2c1N[C@@H]1CCc2[nH]c3ccccc3c2C1` [I-157]: over 1500 nM.
As for `O=C(O)c1cnn2c(NC[C@H](O)c3c[nH]c4ccccc34)cc(-c3cncc(F)c3)nc12` [I-158a], the IC50 was over 1500 nM.
The value for `O=C(O)c1cnn2c(NC[C@@H](O)c3c[nH]c4ccccc34)cc(-c3cncc(F)c3)nc12` [I-158b] was over 1500 nM; that for `Cc1cnn2c(NC[C@@H](C)c3c[nH]c4ccccc34)cc(-c3cncc(F)c3)nc12` [I-160a, 5-(5-Fluoro-3-pyridyl)-N-[(2S)-2-(1H-indol-3-yl)propyl]-3-methyl-pyrazolo[1,5-a]pyrimidin-7-amine] was over 1500 nM.
The value for `Cc1cnn2c(NC[C@H](C)c3c[nH]c4ccccc34)cc(-c3cncc(F)c3)nc12` [I-160b, 5-(5-Fluoro-3-pyridyl)-N-[(2R)-2-(1H-indol-3-yl)propyl]-3-methyl-pyrazolo[1,5-a]pyrimidin-7-amine] was over 1500 nM; that for `Cc1cnn2c(NCC(=O)c3c[nH]c4ccccc34)cc(-c3cncc(F)c3)nc12` [I-163, 2-[[5-(5-Fluoro-3-pyridyl)-3-methyl-pyrazolo[1,5-a]pyrimidin-7-yl]amino]-1-(1H-indol-3-yl)ethanone] was under 500 nM.
Next, `Cc1cnn2c(NCC3(c4c[nH]c5ccccc45)CC3)cc(-c3cncc(F)c3)nc12` [I-167]: over 1500 nM.

(Values after patent US11358969B2, “Indole AHR inhibitors and uses thereof” (Ikena Oncology, Inc., priority 2017, dated 2022).)
